Measured values taken from patent US20160046618A1, “Cyclopropyl Fused Thiazin-2-Amine Compounds as Beta-Secretase Inhibitors and Methods of Use” (AMGEN INC., priority 2014, published 2016).
Where two headings read alike, the source gives them in different places.

Assays:
[1] = molecular target: Recombinant Cat D (Homo sapiens (Human), UniProt P07339); assay: In vitro enzymatic Cathepsin D (Cat D) FRET assay; format: biochemical; settings: read-out: IC50 IP (μM) CatD
In short: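 Recombinant Cat D expressed in CHO cells, assayed in 0.05 M citrate pH 3.5 with 5 mM CHAPS and 10% DMSO final. Reaction started with 20 nM FRET peptide substrate, incubated one hour, then stopped by Tris buffer to neutral pH; fluorescence read at ex 500/em 580 nm.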

[2] = molecular target: human recombinant BACE1 (Homo sapiens (Human), UniProt P56817); assay: In vitro enzymatic BACE1 FRET assay; format: biochemical; settings: read-out: IC50 IP (μM) BACE1 enzyme
human recombinant BACE1, sequence (P56817 46-501): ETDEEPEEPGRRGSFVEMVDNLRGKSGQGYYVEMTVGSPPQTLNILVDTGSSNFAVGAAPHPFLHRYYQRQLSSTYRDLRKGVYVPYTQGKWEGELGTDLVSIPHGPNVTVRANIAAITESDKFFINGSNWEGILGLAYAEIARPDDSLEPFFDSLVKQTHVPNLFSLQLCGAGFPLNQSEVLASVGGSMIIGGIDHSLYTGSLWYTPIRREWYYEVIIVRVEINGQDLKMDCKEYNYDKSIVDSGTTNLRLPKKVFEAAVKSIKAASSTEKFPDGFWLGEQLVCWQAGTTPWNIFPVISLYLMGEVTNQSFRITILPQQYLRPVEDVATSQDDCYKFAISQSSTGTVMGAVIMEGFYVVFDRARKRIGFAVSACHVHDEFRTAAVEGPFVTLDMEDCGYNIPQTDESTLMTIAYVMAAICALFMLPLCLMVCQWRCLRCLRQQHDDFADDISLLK
In short: (§1)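 Read-out: dequenched fluorescence, excitation 488 nm, emission 590 nm, after proteolysis of a quenched peptide spanning the BACE cleavage site. Substrate at 50 nM, 1 h incubation, termination by Tris addition to neutral pH.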

[3] = molecular target: human recombinant BACE2 (Homo sapiens (Human), UniProt Q9Y5Z0); assay: In vitro enzymatic BACE2 FRET assay; format: biochemical; settings: read-out: IC50 IP (μM) BACE2 enzyme
human recombinant BACE2, sequence (Q9Y5Z0 63-518): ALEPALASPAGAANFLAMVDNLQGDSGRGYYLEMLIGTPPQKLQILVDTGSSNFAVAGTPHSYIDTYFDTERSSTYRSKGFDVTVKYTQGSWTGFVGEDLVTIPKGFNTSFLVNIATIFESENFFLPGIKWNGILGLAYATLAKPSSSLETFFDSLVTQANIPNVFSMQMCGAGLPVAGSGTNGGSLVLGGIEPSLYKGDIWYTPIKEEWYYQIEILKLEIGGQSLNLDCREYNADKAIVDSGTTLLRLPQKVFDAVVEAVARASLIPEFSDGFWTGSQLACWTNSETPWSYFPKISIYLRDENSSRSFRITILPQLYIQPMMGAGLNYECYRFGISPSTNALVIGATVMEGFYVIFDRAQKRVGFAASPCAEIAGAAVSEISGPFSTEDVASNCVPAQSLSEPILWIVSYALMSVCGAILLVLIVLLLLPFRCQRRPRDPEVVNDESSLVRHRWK
In short: as §1

[4] = test system: Aβ40 in conditioned medium of cells stably expressing Amyloid Precursor Protein (APP); assay: In vitro BACE-1 cell-based assay (Aβ40 sandwich ELISA); settings: read-out: IC50 IP (μM) BACE1 cell
In short: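 Read-out: time-resolved fluorescence (Streptavidin-Europium) of Aβ40 captured by pAb40 and detected with biotinylated 6E10 from supernatants of APP-stable cells. Cells were exposed to compound for 24 h, 10-point dose response, top dose 100 μM or 10 μM, 0.1% DMSO. IC50 fitted to percent of control.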

Recombinant Cat D, sequence (P07339 65-412): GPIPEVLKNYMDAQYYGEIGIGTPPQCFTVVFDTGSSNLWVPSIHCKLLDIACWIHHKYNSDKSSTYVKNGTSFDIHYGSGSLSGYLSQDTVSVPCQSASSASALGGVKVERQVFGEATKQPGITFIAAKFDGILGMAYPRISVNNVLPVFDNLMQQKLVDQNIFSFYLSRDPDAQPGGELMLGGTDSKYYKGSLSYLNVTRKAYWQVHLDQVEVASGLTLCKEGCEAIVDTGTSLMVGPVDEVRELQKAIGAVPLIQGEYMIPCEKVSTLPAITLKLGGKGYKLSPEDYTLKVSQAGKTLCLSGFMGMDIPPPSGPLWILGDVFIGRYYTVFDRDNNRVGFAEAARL

Row | SMILES | IC50 [1] | IC50 [2] | IC50 [3] | IC50 [4] | IC50 ([1]; Cathepsin D FRET enzyme assay) | IC50 ([2]; BACE1 FRET enzyme assay) | IC50 ([3]; BACE2 FRET enzyme assay) | IC50 ([4]; BACE1 cell-based assay)
1 | C[C@]1(c2cc(Nc3nccc4nc(OCc5ncco5)cnc34)cc(F)c2F)N=C(N)S[C@@]2(C(F)F)C[C@@H]12 [Example 866, N-(3-((1S,5S,6S)-3-amino-1-(difluoromethyl)-5-methyl-2-thia-4-azabicyclo[4.1.0]hept-3-en-5-yl)-4,5-difluorophenyl)-2-(1,3-oxazol-2-ylmethoxy)pyrido[3,4-b]pyrazin-5-amine] | > 400 µM | 0.000941 µM | 0.0285 µM | 0.0115 µM | – | – | – | –
2 | C[C@H](Oc1cnc2c(Nc3cc(F)c(F)c([C@@]4(C)N=C(N)S[C@@]5(C(=O)N6CCCC6)C[C@H]54)c3)nccc2n1)c1ncco1 [Example 938, N-(3-((1S,5S,6S)-3-amino-5-methyl-1-(1-pyrrolidinylcarbonyl)-2-thia-4-azabicyclo[4.1.0]hept-3-en-5-yl)-4,5-difluorophenyl)-2-((1S)-1-(1,3-oxazol-2-yl)ethoxy)pyrido[3,4-b]pyrazin-5-amine] | 162 µM | 0.00129 µM | 0.0633 µM | 0.00508 µM | – | – | – | –
3 | COC[C@]12C[C@H]1[C@@](CF)(c1cc(Nc3nccc4cc(C#N)cnc34)cc(F)c1F)N=C(N)S2 [Example 47, 8-((3-((1S,5S,6S)-3-amino-5-(fluoromethyl)-1-(methoxymethyl)-2-thia-4-azabicyclo[4.1.0]hept-3-en-5-yl)-4,5-difluorophenyl)amino)-1,7-naphthyridine-3-carbonitrile] | – | – | – | – | > 400 µM | 0.00318 µM | 0.00187 µM | 0.0162 µM
4 | NC1=N[C@](CF)(c2cc(NC(=O)c3cnc(OCc4ncco4)cn3)ccc2F)[C@@H]2C[C@]2(c2cnco2)S1 [Example 783, N-(3-((1S,5S,6S)-3-amino-5-(fluoromethyl)-1-(1,3-oxazol-5-yl)-2-thia-4-azabicyclo[4.1.0]hept-3-en-5-yl)-4-fluorophenyl)-5-(1,3-oxazol-2-ylmethoxy)-2-pyrazinecarboxamide] | > 400 µM | 0.000501 µM | 0.00245 µM | 0.00485 µM | – | – | – | –

More lines, now with the values ahead:

Row | IC50 [1] | IC50 [2] | IC50 [3] | IC50 [4] | IC50 ([1]; Cathepsin D FRET enzyme assay) | IC50 ([2]; BACE1 FRET enzyme assay) | IC50 ([3]; BACE2 FRET enzyme assay) | IC50 ([4]; BACE1 cell-based assay) | SMILES
5 | > 400 µM | 0.129 µM | 1.1 µM | 0.12 µM | – | – | – | – | COC[C@]12C[C@H]1[C@@](C)(c1cc(NC(=O)c3cnc(OC(C)C(F)(F)F)cn3)ccc1F)N=C(N)S2 (mixture of isomers) [Example 968, N-(3-((1S,5S,6S)-3-amino-1-(methoxymethyl)-5-methyl-2-thia-4-azabicyclo[4.1.0]hept-3-en-5-yl)-4-fluorophenyl)-5-((1,1,1-trifluoropropan-2-yl)oxy)pyrazine-2-carboxamide]
6 | 675 µM | 0.00418 µM | 0.026 µM | 0.00779 µM | – | – | – | – | C#CCOc1cnc(C(=O)Nc2ccc(F)c([C@@]3(C)N=C(N)S[C@@]4(CF)C[C@H]43)c2)c(C)c1 [Example 690, N-(3-((1S,5S,6S)-3-amino-1-(fluoromethyl)-5-methyl-2-thia-4-azabicyclo[4.1.0]hept-3-en-5-yl)-4-fluorophenyl)-3-methyl-5-(2-propyn-1-yloxy)-2-pyridinecarboxamide]
7 | 102 µM | 0.00273 µM | 0.117 µM | 0.0788 µM | – | – | – | – | Cc1nc(OCC(F)(F)F)cnc1C(=O)Nc1cc(F)c(F)c([C@@]2(C)N=C(N)S[C@@]3(C(F)F)C[C@@H]23)c1 [Example 615, N-(3-((1S,5S,6S)-3-amino-1-(difluoromethyl)-5-methyl-2-thia-4-azabicyclo[4.1.0]hept-3-en-5-yl)-4,5-difluorophenyl)-3-methyl-5-(2,2,2-trifluoroethoxy)-2-pyrazinecarboxamide]
8 | 1070 µM | 0.000706 µM | < 0.00203 µM | 0.0011 µM | – | – | – | – | CN(C)C(=O)CC[C@]12C[C@H]1[C@@](CF)(c1cc(NC(=O)c3ccc(Cl)cn3)ccc1F)N=C(N)S2 [Example 765, N-(3-((1S,5S,6S)-3-amino-1-(3-(dimethylamino)-3-oxopropyl)-5-(fluoromethyl)-2-thia-4-azabicyclo[4.1.0]hept-3-en-5-yl)-4-fluorophenyl)-5-chloropicolinamide]
